Results taken from patent US6737383B1, “Herbicidal oxadiazolidines” (priority 1999, dated 2004).

Legend:
rape = assay: Test B pre/postemergence rape; format: in vivo, Brassica napus
Summary of the method: (§1)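 Test chemicals in a non-phytotoxic solvent mixture with surfactant were sprayed preemergence onto planted seeds and postemergence onto plants 2 to 18 cm tall (1- to 4-leaf stage). After twelve to sixteen days in a greenhouse, injury was visually rated against untreated controls from 0 (no effect) to 10 (complete control).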

giant foxtail = assay: Test B pre/postemergence giant foxtail; format: in vivo, Setaria faberii
Summary of the method: as §1

pigweed = assay: Test B pre/postemergence pigweed; format: in vivo, Amaranthus retroflexus
Summary of the method: as §1

soybean = assay: Test B pre/postemergence soybean; format: in vivo, Glycine max
Summary of the method: as §1

wild oat = assay: Test B pre/postemergence wild oat; format: in vivo, Avena fatua
Summary of the method: as §1

surinam grass = assay: Test B pre/postemergence surinam grass; format: in vivo, Brachiaria decumbens
Summary of the method: as §1

cocklebur = assay: Test B pre/postemergence cocklebur; format: in vivo, Xanthium strumarium
Summary of the method: as §1

bedstraw = assay: Test B pre/postemergence bedstraw; format: in vivo, Galium aparine; conditions: Postemergence
Summary of the method: as §1

rice = assay: Test B flood test rice; format: in vivo, Oryza sativa
Summary of the method: (§2)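 Each value is a visual injury score relative to controls, with 10 meaning complete control and 0 no effect. Evaluation took place twelve to sixteen days after the 2-leaf-stage plants were treated and kept in the greenhouse.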

duck salad = assay: Test B flood test duck salad; format: in vivo, Heteranthera limosa
Summary of the method: as §2

corn = assay: Test B pre/postemergence corn; format: in vivo, Zea mays
Summary of the method: as §1

morningglory = assay: Test B pre/postemergence morningglory; format: in vivo, Ipomoea hederacea
Summary of the method: as §1

wheat = assay: Test B pre/postemergence wheat; format: in vivo, Triticum aestivum
Summary of the method: as §1

bamyardgrass = assay: Test B flood test barnyardgrass; format: in vivo, Echinochloa crus-galli
Summary of the method: as §2

sugar beet = assay: Test B pre/postemergence sugar beet; format: in vivo, Beta vulgaris
Summary of the method: as §1

smallflower flatsedge = assay: Test B flood test smallflower flatsedge; format: in vivo, Cyperus difformis
Summary of the method: as §2

blackgrass = assay: Test B pre/postemergence blackgrass; format: in vivo, Alopecurus myosuroides
Summary of the method: as §1

crabgrass = assay: Test B pre/postemergence crabgrass; format: in vivo, Digitaria sanguinalis
Summary of the method: as §1

velvetleaf = assay: Test B pre/postemergence velvetleaf; format: in vivo, Abutilon theophrasti
Summary of the method: as §1

purple nutsedge = assay: Test B pre/postemergence purple nutsedge; format: in vivo, Cyperus rotundus
Summary of the method: as §1

[1] = Postemergence, Rate 250 g/ha, scale 0 to 10, 0 is no effect, 10 is complete control
[2] = Postemergence, Rate 500 g/ha, scale of 0 to 10 where 0 is no effect and 10 is complete control
[3] = Preemergence, Rate 62 g/ha, scale 0 to 10 (0 no effect, 10 complete control)
[4] = Preemergence, Rate 125 g/ha, scale of 0 to 10 where 0 is no effect and 10 is complete control
[5] = Preemergence, Rate 250 g/ha, scale 0 to 10, 0 is no effect, 10 is complete control
[6] = Preemergence, Rate 500 g/ha, scale 0 to 10, 0 is no effect, 10 is complete control
[7] = Postemergence, Rate 125 g/ha, scale 0 to 10, 0 is no effect, 10 is complete control
[8] = Rate 62 g/ha, Postemergence, scale of 0 to 10 where 0 is no effect and 10 is complete control
[9] = Preemergence, Rate 250 g/ha, scale of 0 to 10 where 0 is no effect and 10 is complete control
[10] = Rate 62 g/ha, flood test species, Pre-emergence, visual evaluation after twelve to sixteen days
[11] = Rate 125 g/ha, under heading Pre-emergence, flood test species, visual evaluation after twelve to sixteen days
[12] = Rate 250 g/ha, Pre-emergence, flood-test species, scale 0 to 10, 0 is no effect, 10 is complete control
[13] = Rate 500 g/ha, Pre-emergence, flood test species, scale 0 to 10 (0 no effect, 10 complete control)

CC(C)N(C(=O)n1oc(=O)n(C(C)CCl)c1=O)c1ccccc1 (centres unmarked) [Compound 411]
Plant response rating, Rape (rape; [1]): 7 | Rape plant response rating (rape; [2]): 8 | Plant response rating, Rape (rape; [3]): 2 | Plant response rating, Rape (rape; [4]): 8 | Rape plant response rating (rape; [5]): 9 | Rape plant response rating (rape; [6]): 10 | Plant response rating, Giant foxtail (giant foxtail; [7]): 9 | Plant response rating, Giant foxtail (giant foxtail; [1]): 9 | Giant foxtail plant response rating (giant foxtail; [2]): 9 | Plant response rating, Giant foxtail (giant foxtail; [3]): 10 | Plant response rating, Giant foxtail (giant foxtail; [4]): 10 | Giant foxtail plant response rating (giant foxtail; [5]): 10 | Giant foxtail plant response rating (giant foxtail; [6]): 10 | Giant foxtail plant response rating (giant foxtail; [8]): 6 | Plant response rating, Redroot pigweed (pigweed; [1]): 7 | Redroot pigweed plant response rating (pigweed; [2]): 9 | Plant response rating, Redroot pigweed (pigweed; [3]): 3 | Plant response rating, Redroot pigweed (pigweed; [4]): 8 | Redroot pigweed plant response rating (pigweed; [5]): 10 | Redroot pigweed plant response rating (pigweed; [6]): 10 | Plant response rating, Soybean (soybean; [1]): 5 | Soybean plant response rating (soybean; [2]): 7 | Plant response rating, Soybean (soybean; [3]): 0 | Plant response rating, Soybean (soybean; [4]): 0 | Soybean plant response rating (soybean; [5]): 0 | Soybean plant response rating (soybean; [6]): 1 | Wild oats plant response rating (wild oat; [2]): 9 | Plant response rating, Wild oats (wild oat; [3]): 0 | Plant response rating, Wild oats (wild oat; [4]): 5 | Wild oats plant response rating (wild oat; [5]): 8 | Wild oats plant response rating (wild oat; [6]): 10 | Plant response rating, B. signalgrass (surinam grass; [7]): 3 | Plant response rating, B. signalgrass (surinam grass; [1]): 5 | B. signalgrass plant response rating (surinam grass; [2]): 9 | Plant response rating, B. signalgrass (surinam grass; [3]): 0 | Plant response rating, B. signalgrass (surinam grass; [4]): 3 | B. signalgrass plant response rating (surinam grass; [9]): 7 | B. signalgrass plant response rating (surinam grass; Preemergence, Rate 500 g/ha, scale of 0 to 10 where 0 is no effect and 10 is complete control): 10 | B. signalgrass plant response rating (surinam grass; [8]): 0 | Plant response rating, Cocklebur (cocklebur; [7]): 1 | Plant response rating, Cocklebur (cocklebur; [1]): 3 | Cocklebur plant response rating (cocklebur; [2]): 3 | Plant response rating, Cocklebur (cocklebur; [3]): 0 | Plant response rating, Cocklebur (cocklebur; [4]): 0 | Cocklebur plant response rating (cocklebur; [5]): 0 | Cocklebur plant response rating (cocklebur; [6]): 0 | Cocklebur plant response rating (cocklebur; [8]): 1 | Plant response rating, Bedstraw (bedstraw; Rate 250 g/ha, scale 0 to 10, 0 is no effect, 10 is complete control): 7 | Bedstraw plant response rating (bedstraw; Rate 500 g/ha, scale of 0 to 10 where 0 is no effect and 10 is complete control): 8 | Plant response rating, Rice (0 to 10 scale, 0 is no effect, 10 is complete control) (rice; [10]): 0 | Rice plant response rating (0 to 10 scale, 0 is no effect, 10 is complete control) (rice; [11]): 0 | Rice plant response rating (rice; [12]): 0 | Rice plant response rating (rice; [13]): 0 | Plant response rating, Ducksalad (0 to 10 scale, 0 is no effect, 10 is complete control) (duck salad; [10]): 0 | Ducksalad plant response rating (0 to 10 scale, 0 is no effect, 10 is complete control) (duck salad; [11]): 0 | Ducksalad plant response rating (duck salad; [12]): 2 | Ducksalad plant response rating (duck salad; [13]): 2 | Plant response rating, Corn (corn; [7]): 0 | Plant response rating, Corn (corn; [1]): 0 | Corn plant response rating (corn; [2]): 4 | Plant response rating, Corn (corn; [3]): 0 | Plant response rating, Corn (corn; [4]): 2 | Corn plant response rating (corn; [5]): 8 | Corn plant response rating (corn; [6]): 9 | Corn plant response rating (corn; [8]): 0 | Plant response rating, Morningglory (morningglory; [1]): 6 | Morningglory plant response rating (morningglory; [2]): 6 | Plant response rating, Morningglory (morningglory; [3]): 0 | Plant response rating, Morningglory (morningglory; [4]): 1 | Morningglory plant response rating (morningglory; [5]): 2 | Morningglory plant response rating (morningglory; [6]): 4 | Wheat plant response rating (wheat; [2]): 8 | Plant response rating, Wheat (wheat; [3]): 0 | Plant response rating, Wheat (wheat; [4]): 4 | Wheat plant response rating (wheat; [5]): 7 | Wheat plant response rating (wheat; [6]): 10 | Plant response rating, Barnyardgrass (0 to 10 scale, 0 is no effect, 10 is complete control) (bamyardgrass; [10]): 0 | Barnyardgrass plant response rating (0 to 10 scale, 0 is no effect, 10 is complete control) (bamyardgrass; [11]): 8 | Barnyardgrass plant response rating (bamyardgrass; [12]): 9 | Barnyardgrass plant response rating (bamyardgrass; [13]): 9 | Plant response rating, Sugarbeets (sugar beet; [1]): 4 | Sugarbeets plant response rating (sugar beet; [2]): 7 | Plant response rating, Sugarbeets (sugar beet; [3]): 5 | Plant response rating, Sugarbeets (sugar beet; [4]): 8 | Sugarbeets plant response rating (sugar beet; [5]): 8 | Sugarbeets plant response rating (sugar beet; [6]): 8 | Plant response rating, S. Flatsedge (0 to 10 scale, 0 is no effect, 10 is complete control) (smallflower flatsedge; [10]): 0 | S. Flatsedge plant response rating (0 to 10 scale, 0 is no effect, 10 is complete control) (smallflower flatsedge; [11]): 0 | S. Flatsedge plant response rating (smallflower flatsedge; [12]): 9 | S. Flatsedge plant response rating (smallflower flatsedge; [13]): 9 | Plant response rating, Blackgrass (blackgrass; [1]): 9 | Blackgrass plant response rating (blackgrass; [2]): 9 | Plant response rating, Blackgrass (blackgrass; [3]): 6 | Plant response rating, Blackgrass (blackgrass; [4]): 7 | Blackgrass plant response rating (blackgrass; [9]): 9 | Blackgrass plant response rating (blackgrass; [6]): 10 | Plant response rating, Crabgrass (crabgrass; [7]): 4 | Plant response rating, Crabgrass (crabgrass; [1]): 8 | Crabgrass plant response rating (crabgrass; [2]): 8 | Plant response rating, Crabgrass (crabgrass; [3]): 9 | Plant response rating, Crabgrass (crabgrass; [4]): 10 | Crabgrass plant response rating (crabgrass; [5]): 10 | Crabgrass plant response rating (crabgrass; [6]): 10 | Crabgrass plant response rating (crabgrass; [8]): 4 | Plant response rating, Velvetleaf (velvetleaf; [1]): 4 | Velvetleaf plant response rating (velvetleaf; [2]): 6 | Plant response rating, Velvetleaf (velvetleaf; [3]): 2 | Plant response rating, Velvetleaf (velvetleaf; [4]): 5 | Velvetleaf plant response rating (velvetleaf; [5]): 6 | Velvetleaf plant response rating (velvetleaf; [6]): 8 | Plant response rating, Nutsedge (purple nutsedge; [1]): 0 | Nutsedge plant response rating (purple nutsedge; [2]): 0 | Plant response rating, Nutsedge (purple nutsedge; [3]): 0 | Plant response rating, Nutsedge (purple nutsedge; [4]): 0 | Nutsedge plant response rating (purple nutsedge; [5]): 0 | Nutsedge plant response rating (purple nutsedge; [6]): 2
